In patent publication US9492444B2, “Extruded extended release abuse deterrent pill” (Pharmaceutical Manufacturing Research Services, Inc., priority 2013, dated 2016):

Key:
[1] = General solubility of exemplary components; type: physicochemical; settings: 200 proof ethanol, filtered through 0.22 micrometer PTFE filter
Excerpt: The following table lists the relative solubility of exemplary components of a formulation. A number of different dyes are listed along with their solubility information taken from the various literature sources and tested experimentally (200 proof ethanol and filtered through a 0.22 micrometer PTFE filter).

[2] = cited from earlier work

CCN(Cc1cccc(S(=O)(=O)[O-])c1)c1ccc(C(=C2C=CC(=[N+](CC)Cc3cccc(S(=O)(=O)[O-])c3)C=C2)c2ccccc2S(=O)(=O)[O-])cc1.[Na+].[Na+] [Blue #1]
Yes: Alcohol Solubility (tested) [1] | Alcohol Solubility (Literature) [2] | Water Solubility [2]

O=C1/C(=C2\Nc3ccc(S(=O)(=O)[O-])cc3C2=O)Nc2ccc(S(=O)(=O)[O-])cc21.[Na+].[Na+] [Blue #2]
Yes: Alcohol Solubility (tested) [1] | Alcohol Solubility (Literature) [2] | Water Solubility [2]

COc1cc(S(=O)(=O)[O-])c(C)cc1N=Nc1c(O)ccc2cc(S(=O)(=O)[O-])ccc12.[Na+].[Na+] [Red #40]
Yes: Alcohol Solubility (tested) [1] | Alcohol Solubility (Literature) [2] | Water Solubility [2]

O=C([O-])C1=NN(c2ccc(S(=O)(=O)[O-])cc2)C(=O)C1N=Nc1ccc(S(=O)(=O)[O-])cc1.[Na+].[Na+].[Na+] (stereo not drawn) [Yellow #5]
Yes: Alcohol Solubility (tested) [1] | Alcohol Solubility (Literature) [2] | Water Solubility [2]
